The target in this experiment is Cyclic GMP-AMP synthase (Homo sapiens, UniProt Q8N884). The experiment in a line: Biochemical Assay. As to the method:
The enzyme solution was transferred into the reagent buffer to give a final concentration of 30 nM. […] The reaction plates were then centrifuged at 1000 rpm for 1 minute and incubated at room temperature for 1 h.

pIC50: −log10 of the molar value.

Chain of Cyclic GMP-AMP synthase (Q8N884 whole entry): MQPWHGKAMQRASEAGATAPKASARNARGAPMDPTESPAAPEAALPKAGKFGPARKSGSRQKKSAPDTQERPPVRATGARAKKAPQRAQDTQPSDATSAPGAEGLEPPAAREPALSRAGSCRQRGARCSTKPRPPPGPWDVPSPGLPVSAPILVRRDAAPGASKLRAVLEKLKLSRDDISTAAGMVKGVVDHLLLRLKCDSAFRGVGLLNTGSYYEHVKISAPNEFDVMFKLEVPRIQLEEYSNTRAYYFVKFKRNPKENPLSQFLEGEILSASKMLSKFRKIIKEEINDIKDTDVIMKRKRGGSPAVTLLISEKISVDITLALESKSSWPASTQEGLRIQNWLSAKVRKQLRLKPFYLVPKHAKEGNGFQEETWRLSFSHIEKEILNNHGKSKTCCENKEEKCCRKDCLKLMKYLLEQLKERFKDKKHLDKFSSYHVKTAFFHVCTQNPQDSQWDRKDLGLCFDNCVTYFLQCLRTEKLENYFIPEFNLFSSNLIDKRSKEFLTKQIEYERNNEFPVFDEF

As a reminder, the pIC50 is −log10 of the IC50, conventionally taken in molar units. High values mean a low IC50, low ones a high IC50. Regarding `Cn1c(-c2nnc(C(F)(F)F)[nH]2)c(-c2cn[nH]c2)c2ccc(Cl)c(C#N)c21` [US12404261, Example 27], the pIC50 was 6.86.

`FC(F)(F)c1nnc(-c2[nH]c3cc(Cl)c(OC4CC4)cc3c2-n2ccnc2)[nH]1` [US12404261, Example 113] had a pIC50 of 6.06.

In turn, `COc1cc2c(-n3ccnc3)c(-c3nnc(C(=O)N(C)C)[nH]3)n(C)c2c(C#N)c1C#N` [US12404261, Example 120] had a negative logarithm of the IC50 (pIC50) of 6.76.

In the case of `Cn1c(-c2nnc(C(F)(F)F)[nH]2)c(-n2ccnc2)c2cc(O)c(Cl)cc21` [US12404261, Example 115], the pIC50 is 7.17. This pIC50 is 0.41 log units higher than that of the compound before.

`COCC(C1=NNC(c2c(-n3ccnc3)c3cc(OC)c(Cl)c(F)c3n2C)N1)N1CCOCC1` (configuration not stated) [US12404261, Example 126] had a pIC50 of 6.39.

Turning to `COc1cc2c(-n3ccnc3)c(-c3nnc(C(CN(C)C)OC)[nH]3)n(C)c2c(F)c1Cl` (configuration not stated) [US12404261, Example 97], the pIC50 is 6.98.

The compound `COc1cc2c(-c3cn[nH]c3)c(-c3nnc(C(CN(C)C)OC)[nH]3)n(C)c2c(F)c1Cl` (configuration not stated) [US12404261, Example 75] showed a negative-log IC50 (pIC50) of 7.15.

The values are drawn from BindingDB's records for patent US12404261 (Novartis, 2025).
